Data published in patent US20130225545A1, “PORPHYRIN TREATMENT OF NEURODEGENERATIVE DISEASES” (priority 2010, published 2013).
“Also recorded” adds a separate entry of the source.

Experiments:
[1] = Brain concentration in C57BL/6 mice after a single dose (15 mg/kg) by the i.p. or p.o. route; format: in vivo; settings: for concentration in the brain after i.p. administration / concentration in the brain, stable for 24 hr after i.p. administration / concentration in the brain after p.o. administration / concentration in the brain for 24 hr after p.o. administration: C57BL/6 mice; for concentration in the brain after i.p. administration / concentration in the brain, stable for 24 hr after i.p. administration: single dose 15 mg/kg i.p.; for concentration in the brain after i.p. administration / concentration in the brain after p.o. administration: result in words; for penetration of the BBB: 15 mg/kg, i.p. (AEOL11216), i.p. and p.o. (AEOL11203, AEOL1114); for concentration in the brain after p.o. administration / concentration in the brain for 24 hr after p.o. administration: single dose 15 mg/kg p.o.
Description: (§1) Points represent mean±S.E.M. Each point is the average of 3-4 animals.
(§2) Points represent mean+S.E.M. Bars represent mean+S.E.M. n=3-6 mice per group. […] Bars represent mean+S.E.M. n=3-6 mice per group. […] Bars represent mean+S.E.M. #p<0.01 vs MPTP. One-way, ANOVA, n=6 mice per group.
(§3) Points represent mean±S.E.M. Each point is the average of 3-4 animals. […] Bars represent mean+S.E.M. n=6-8 mice per group. […] Bars represent mean+S.E.M. #p<0.01 vs MPTP. One-way, ANOVA, n=6 mice per group.
(§4) Points represent mean+S.E.M. Each point is the average of 4 animals. […] Bars represent mean+S.E.M. n=6 mice per group. […] Bars represent mean+S.E.M. #p<0.01 vs MPTP. One-way, ANOVA, n=6 mice per group.

[2] = Plasma concentration in C57BL/6 mice after a single dose (15 mg/kg) by the i.p. or p.o. route; format: in vivo; settings: for plasma concentration after i.p. administration / plasma concentration after p.o. administration: C57BL/6 mice; for plasma concentration after i.p. administration: single dose 15 mg/kg i.p.; for plasma concentration after p.o. administration: single dose 15 mg/kg p.o.; for bioavailability / pharmacokinetic properties, overall assessment: mice, i.p. and p.o., summary in words
Description: as §1, §2, §3, §4
Points represent mean+S.E.M. Each point is the average of 4 animals.

MPTP mouse model [3] = assay: Dopamine levels in the striata 7 days after injection of MPTP; format: in vivo, C57BL/6 mice; settings: for protection against MPTP-induced striatal dopamine depletion: 1 hr prior to MPTP and daily thereafter, MPTP 15 mg/kg x3 s.c., 7 days
Description: as §2, §3, §4

MPTP mouse model [4] = assay: GSH, GSSG, GSH/GSSG and 3NT/Tyr ratios in ventral midbrain/SN 24 hours after MPTP; format: in vivo, C57/B6 mice; settings: for protection against MPTP-induced alteration of 3-NT/tyrosine ratio / protection against MPTP-induced alteration of GSH/GSSG: 24 hours after MPTP
Description: as §2, §3, §4

MPTP mouse model [5] = assay: Stereological count of TH+ neurons in the substantia nigra pars compacta 7 days after MPTP; format: in vivo, C57BL/6 mice; settings: MPTP 15 mg/kg x3 s.c.
Description: as §2
Assessment of tyrosine hydroxylase (TH) neurons: Free-floating […] mesencephalic serial sections will be processed with antibodies against TH for immunohistochemistry (Vector Laboratories) and counterstained with cresyl violet. Total numbers of TH and cresyl violet-stained neurons in SNpc is counted stereologically with STEREO INVESTIGATOR software.
Stereological analysis and TH immunohistochemistry: The 40-μm sections including the whole SN pars compacta (SNpc) from bregma −2.60 to −3.80 mm is immunostained with a rabbit antibody to TH (Chemicon, Temecula, Calif.) using the ABC method (ABC Elite Kit, Vector Laboratories, Burlingame, Calif.). The number of TH-positive neurons is quantified using stereo investigator software (MicroBrightfield, Williston, Vt.) by a previously described method (West, Trends in Neurosciences 22:51-61, 1999; Liang et al., J Neurosci 27:4326-4333, 2007).
Bars represent mean+S.E.M. n=6.

MPTP metabolism = assay: Striatal MPP+ levels 3 h after MPTP (effects on MPTP metabolism); format: in vivo, mice; settings: 15 mg/kg i.p. 1 h before MPTP (15 mg/kg s.c.)
Description: Bars represent mean+S.E.M. n=4-6 mice per group.

[6] = Solubility of the compound for dosing; format: physicochemical; settings: result in words
mice [7] = assay: Open field test after 7 days of dosing; settings: 15 mg/kg i.p. daily for 7 days; 3-4 h after last injection
Description: (§5) FIG. 15. The histograms of FIGS. 15A-15C appear in the order (left to right): control; MnCl2; AEOL 11114; AEOL 11207; AEOL 11203. Behavioral testing after dosing mice with AEOL11207, AEOL11114B or AEOL11203 (MnCl2 positive control). Mice (6 per group) were divided 5 groups treated with AEOL11207, AEOL11203, AEOL11114B, MnCl2 (all compound dissolved in 5% DMSO) or 5% DMSO alone by 15 mg/kg i.p. daily for a period of 7 days. At the end of treatment, mice were performed the behavioral tests by open field and accelerating rotorod test in 3-4 h after last injection. The total moving distance (FIG. 15A), moving velocity (FIG. 15B) in 5 minutes measured by open field test and the latency (seconds) from acceleration to fall from the rod (FIG. 15C) in the mice 7 days after injection of vehicle, MnCl2, AEOL11114, AEOL11207 and AEOL11203 i.p. (15 mg/kg daily). Bars represent mean+S.E.M. One-way, ANOVA, n=6-8 mice per group.
Open field test: The test is performed in mice treated with AEOL compounds or vehicle. The assessment is conducted over 2-4 days in a square arena mounted within specially designed sound-proof plexiglass shells. Each day a mouse is placed in the center of the open field arena and allowed to freely move about for 20-60 minutes while being tracked by an automated tracking system. […]

mice [8] = assay: Accelerating rotarod test after 7 days of dosing; settings: 15 mg/kg i.p. daily for 7 days; 3-4 h after last injection
Description: as §5
Motor behavior assessment by accelerating rotarod test follows the protocol of Hamm et al. (Ferret et al., Hepatology 33:1173-1180, 2001). Rotarod test is performed by using an automated rotarod (Ugo Basile, Comerio, Italy) after AEOLs or vehicle injections. Animals are tested two consecutive daily trials (1 hour apart) with an accelerating mode (15, 20, 25, 30, 35 and 40 rpm) in 240 seconds for total 5 days. The average latency to fall from the rod will be recorded. […]

Row | Structure (SMILES) | concentration in the brain after i.p. administration [1] | plasma concentration after i.p. administration ([2]; result in words) | bioavailability / pharmacokinetic properties, overall assessment [2] | protection against MPTP-induced striatal dopamine depletion (MPTP mouse model [3]; 15 mg/kg i.p.) | penetration of the BBB [1] | concentration in the brain, stable for 24 hr after i.p. administration [1] | protection against MPTP-induced alteration of 3-NT/tyrosine ratio (MPTP mouse model [4]; 15 mg/kg x3 daily i.p.) | protection against MPTP-induced alteration of GSH/GSSG (MPTP mouse model [4]; 15 mg/kg x3 daily i.p.) | concentration in the brain after p.o. administration [1] | effect on striatal MPP+ levels (MPTP metabolism) | solubility [6] | other results
1 | CCCOC(=O)C1=C2C=CC(=N2)C(C(=O)OCCC)=c2ccc3[n]2[Mn][n]2c1ccc2C(C(=O)OCCC)=C1C=CC(=N1)C=3C(=O)OCCC [AEOL11215] | not reliably detectable | moderate levels | poor bioavailability; also recorded: unfavorable pharmacokinetic or oral bioavailability |  |  |  |  |  |  |  |  | plasma concentration after p.o. administration ([2]; result in words): not reliably detected
2 | CCCOC(=O)C1=C2C=CC(=N2)C(C(F)(F)F)=c2ccc3[n]2[Mn][n]2c1ccc2C(C(F)(F)F)=C1C=CC(=N1)C=3C(=O)OCCC [AEOL11216] |  | high plasma concentrations |  | did not significantly prevent | penetrated the BBB | more than 100 nM | significantly protected | significantly protected |  |  |  | protection against MPTP-induced dopaminergic (TH+) neuronal loss in the substantia nigra pars compacta (MPTP mouse model [5]; 15 mg/kg i.p.): significantly protected
3 | FC(F)(F)C1=C2C=CC(=N2)C(C(F)(F)F)=c2ccc3[n]2[Mn+][n]2c1ccc2C(C(F)(F)F)=C1C=CC(=N1)C=3C(F)(F)F [AEOL11256] | undetectable | relatively low |  |  |  |  |  |  | undetectable | none of the AEOL compounds tested altered the levels of MPP+ | a major issue | plasma concentration after p.o. administration ([2]; result in words): relatively low
4 | COC(=O)c1ccc(C2=C3C=CC(=N3)C(C=O)=c3ccc4[n]3[Mn+][n]3c(ccc32)C(C=O)=C2C=CC(=N2)C=4c2ccc(C(=O)OC)cc2)cc1 [AEOL11209] | variable and relatively low | low but achievable | unfavorable pharmacokinetic or oral bioavailability; also recorded: poor bioavailability |  |  |  |  |  | variable and relatively low |  | a major issue; also recorded: solubility issues | 
5 | [Cl][Mn][Cl] [MnCl2] |  |  |  |  |  |  |  |  |  |  |  | open field test (total moving distance, moving velocity) versus other groups (mice [7]): no statistically significant differences; accelerating rotorod test (latency to fall) versus other groups (mice [8]): no statistically significant differences
6 | COC(=O)c1ccc(C2=C3C=CC(=N3)C(C(F)(F)F)=c3ccc4[n]3[Mn+][n]3c2ccc3C(C(F)(F)F)=C2C=CC(=N2)C=4c2ccc(C(=O)OC)cc2)cc1 [AEOL1114] |  |  | good pharmacokinetic properties, brain penetration, oral bioavailability | statistically significant protection | penetrated the BBB | > 200 nM | significantly protected | significantly protected |  | none of the AEOL compounds tested altered the levels of MPP+ | favorable solubility properties | protection against MPTP-induced striatal dopamine depletion (MPTP mouse model [3]; 15 mg/kg p.o.): statistically significant protection; concentration in the brain for 24 hr after p.o. administration [1]: > 200 nM; plasma concentration after i.p. administration [2]: ~20000 nM; protection against MPTP-induced alteration of 3-NT/tyrosine ratio (MPTP mouse model [4]; 15 mg/kg x3 daily p.o.): significantly protected; protection against MPTP-induced alteration of GSH/GSSG (MPTP mouse model [4]; 15 mg/kg x3 daily p.o.): significantly protected; efficacy against MPTP-induced oxidative stress, overall assessment (MPTP mouse model [4]; summary in words): efficacy against MPTP-induced oxidative stress; protection against MPTP-induced dopaminergic (TH+) neuronal loss in the substantia nigra pars compacta (MPTP mouse model [5]; 15 mg/kg i.p.): prevents MPTP-induced loss of TH+ dopamine neurons; protection against MPTP-induced dopaminergic (TH+) neuronal loss in the substantia nigra pars compacta (MPTP mouse model [5]; 15 mg/kg p.o.): prevents MPTP-induced loss of TH+ dopamine neurons
7 | COC(=O)C1=C2C=CC(=N2)C(C(=O)OC)=c2ccc3[n]2[Mn+][n]2c1ccc2C(C(=O)OC)=C1C=CC(=N1)C=3C(=O)OC [AEOL11203] | good brain bioavailability | relative high |  | statistically significant protection | penetrated the BBB | > 100 nM | significantly protected | significantly protected | good brain bioavailability | none of the AEOL compounds tested altered the levels of MPP+ | good | efficacy in the MPTP mouse model, overall assessment (MPTP mouse model [3]; summary in words): promising efficacy; concentration in the brain for 24 hr after p.o. administration [1]: ~50 nM; plasma concentration after p.o. administration [2]: ~5000 nM
8 | COC(=O)c1c2nc(c(C(F)(F)F)c3ccc([n-]3)c(C(=O)OC)c3nc(c(C(F)(F)F)c4ccc1[n-]4)C=C3)C=C2.[Cl-].[Mn+3] [AEOL11207] |  |  |  |  |  |  |  |  |  | none of the AEOL compounds tested altered the levels of MPP+ |  | 
